Measurements published in paper PMC4769319, “Cohesin Releases DNA through Asymmetric ATPase-Driven Ring Opening” (Molecular Cell, 2016).

Target: T1, Smc1/Smc3 heterodimer with Scc1-C (cohesin) (Saccharomyces cerevisiae, UniProt P32908+P47037, P32908:K39I, form not given)
T1 construct: N-terminal tags; Sf9 insect cells; fluorescently labelled for MST; with Sister chromatid cohesion protein 1
T1 sequence (P32908 1-1225 K39I): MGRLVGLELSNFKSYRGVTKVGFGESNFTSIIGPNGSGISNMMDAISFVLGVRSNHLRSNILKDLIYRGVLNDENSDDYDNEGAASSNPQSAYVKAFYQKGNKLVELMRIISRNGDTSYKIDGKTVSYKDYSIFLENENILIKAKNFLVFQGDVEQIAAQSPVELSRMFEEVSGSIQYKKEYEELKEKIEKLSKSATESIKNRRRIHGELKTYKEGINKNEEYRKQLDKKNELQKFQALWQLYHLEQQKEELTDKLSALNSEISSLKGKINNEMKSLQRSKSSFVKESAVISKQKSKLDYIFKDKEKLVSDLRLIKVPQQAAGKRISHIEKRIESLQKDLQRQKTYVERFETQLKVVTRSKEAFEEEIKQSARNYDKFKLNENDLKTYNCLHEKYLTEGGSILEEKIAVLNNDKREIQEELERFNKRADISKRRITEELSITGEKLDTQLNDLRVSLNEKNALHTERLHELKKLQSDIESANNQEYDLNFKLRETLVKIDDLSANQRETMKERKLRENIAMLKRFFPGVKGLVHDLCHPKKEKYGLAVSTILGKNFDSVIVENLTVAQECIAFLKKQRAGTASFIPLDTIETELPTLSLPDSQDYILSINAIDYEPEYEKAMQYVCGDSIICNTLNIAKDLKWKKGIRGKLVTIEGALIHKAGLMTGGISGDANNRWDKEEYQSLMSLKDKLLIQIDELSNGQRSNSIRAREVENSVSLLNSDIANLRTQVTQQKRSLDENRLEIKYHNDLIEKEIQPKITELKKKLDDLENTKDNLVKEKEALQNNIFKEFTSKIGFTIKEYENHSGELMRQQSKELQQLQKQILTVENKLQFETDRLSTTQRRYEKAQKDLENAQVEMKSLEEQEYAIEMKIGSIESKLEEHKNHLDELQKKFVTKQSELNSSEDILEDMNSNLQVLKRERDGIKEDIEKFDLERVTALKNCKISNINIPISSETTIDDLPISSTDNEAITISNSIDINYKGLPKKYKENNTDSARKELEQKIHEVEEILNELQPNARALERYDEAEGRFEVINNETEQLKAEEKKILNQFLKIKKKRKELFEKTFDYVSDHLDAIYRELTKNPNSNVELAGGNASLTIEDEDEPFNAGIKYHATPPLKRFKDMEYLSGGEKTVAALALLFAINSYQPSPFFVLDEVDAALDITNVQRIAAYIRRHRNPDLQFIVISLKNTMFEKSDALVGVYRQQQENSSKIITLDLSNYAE
T1 sequence (P47037 1-1230): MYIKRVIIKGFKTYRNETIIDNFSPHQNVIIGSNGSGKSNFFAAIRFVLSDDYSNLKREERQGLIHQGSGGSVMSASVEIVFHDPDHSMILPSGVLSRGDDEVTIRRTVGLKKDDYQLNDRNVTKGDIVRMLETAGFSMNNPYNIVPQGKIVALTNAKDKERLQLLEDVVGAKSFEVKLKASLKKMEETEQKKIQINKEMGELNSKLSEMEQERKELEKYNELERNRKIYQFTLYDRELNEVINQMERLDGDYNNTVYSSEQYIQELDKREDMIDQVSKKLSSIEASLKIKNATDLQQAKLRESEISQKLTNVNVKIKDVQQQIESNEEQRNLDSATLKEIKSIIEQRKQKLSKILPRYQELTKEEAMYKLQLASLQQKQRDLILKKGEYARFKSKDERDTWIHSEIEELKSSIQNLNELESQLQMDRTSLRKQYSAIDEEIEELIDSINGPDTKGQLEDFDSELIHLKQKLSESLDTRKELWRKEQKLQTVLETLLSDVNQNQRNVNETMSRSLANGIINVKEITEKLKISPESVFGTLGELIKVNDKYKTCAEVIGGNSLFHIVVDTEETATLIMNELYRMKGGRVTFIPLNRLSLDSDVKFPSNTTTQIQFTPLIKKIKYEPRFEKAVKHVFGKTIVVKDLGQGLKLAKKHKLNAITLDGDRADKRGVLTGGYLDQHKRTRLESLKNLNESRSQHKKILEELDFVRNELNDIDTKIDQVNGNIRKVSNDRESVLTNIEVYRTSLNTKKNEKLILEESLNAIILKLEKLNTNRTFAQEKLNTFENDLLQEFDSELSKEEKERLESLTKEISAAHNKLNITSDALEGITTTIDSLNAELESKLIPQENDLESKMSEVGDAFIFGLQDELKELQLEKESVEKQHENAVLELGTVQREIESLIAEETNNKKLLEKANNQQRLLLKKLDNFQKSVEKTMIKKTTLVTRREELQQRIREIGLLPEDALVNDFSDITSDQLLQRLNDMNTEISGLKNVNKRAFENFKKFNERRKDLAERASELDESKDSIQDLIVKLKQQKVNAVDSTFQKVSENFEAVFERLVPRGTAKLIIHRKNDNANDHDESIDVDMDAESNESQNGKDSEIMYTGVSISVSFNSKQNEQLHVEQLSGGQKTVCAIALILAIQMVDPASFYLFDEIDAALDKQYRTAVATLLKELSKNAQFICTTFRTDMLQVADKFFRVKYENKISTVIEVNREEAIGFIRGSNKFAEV
T1 sequence (Q12158 1-566 partner): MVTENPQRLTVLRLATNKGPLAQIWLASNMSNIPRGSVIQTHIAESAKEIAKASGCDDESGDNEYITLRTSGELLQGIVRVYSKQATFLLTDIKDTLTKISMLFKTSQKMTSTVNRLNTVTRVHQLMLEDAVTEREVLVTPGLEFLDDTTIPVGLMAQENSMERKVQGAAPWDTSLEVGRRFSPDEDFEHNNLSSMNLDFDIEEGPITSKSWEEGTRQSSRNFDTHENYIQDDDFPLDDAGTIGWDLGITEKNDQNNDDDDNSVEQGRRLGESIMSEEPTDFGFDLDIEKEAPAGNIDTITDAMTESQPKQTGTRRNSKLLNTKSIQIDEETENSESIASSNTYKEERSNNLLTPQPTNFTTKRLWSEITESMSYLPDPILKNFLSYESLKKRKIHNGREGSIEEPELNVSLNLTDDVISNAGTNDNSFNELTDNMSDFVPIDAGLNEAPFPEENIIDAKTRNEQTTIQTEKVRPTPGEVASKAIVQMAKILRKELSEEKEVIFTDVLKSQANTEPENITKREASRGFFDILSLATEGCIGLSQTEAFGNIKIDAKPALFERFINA
Test: microscale thermophoresis
Details: fluorescently labelled protein; Smc1 co-purified with Scc1-C, plus Smc3; binding abrogated

SMILES | microscale thermophoresis
Nc1ncnc2c1ncn2[C@@H]1O[C@H](COP(=O)(O)OP(=O)(O)O)[C@@H](O)[C@H]1O [ADP] | each of the Walker A mutations efficiently abrogated binding to ATP and ADP
Nc1ncnc2c1ncn2[C@@H]1O[C@H](COP(=O)(O)OP(=O)(O)OP(=O)(O)O)[C@@H](O)[C@H]1O [ATP] | each of the Walker A mutations efficiently abrogated binding to ATP and ADP
